Here are results for 30 compounds from ChEMBL document CHEMBL1131518, “Methionine analogues as inhibitors of methionyl-tRNA synthetase” (1998).

The structures appear in SMILES notation. ≈ marks a conversion by molar mass, not a printed value. Where only a bound is given, the exact number is not on record here.

The target of assay [1] is Methionine--tRNA ligase (Escherichia coli K-12) (UniProt P00959). Description: Ability to inhibit Escherichia coli methionyl-tRNA synthetase was determined at a concentration of 270 uM.
Sequence of Methionine--tRNA ligase (Escherichia coli K-12) (P00959 2-677 limits assumed): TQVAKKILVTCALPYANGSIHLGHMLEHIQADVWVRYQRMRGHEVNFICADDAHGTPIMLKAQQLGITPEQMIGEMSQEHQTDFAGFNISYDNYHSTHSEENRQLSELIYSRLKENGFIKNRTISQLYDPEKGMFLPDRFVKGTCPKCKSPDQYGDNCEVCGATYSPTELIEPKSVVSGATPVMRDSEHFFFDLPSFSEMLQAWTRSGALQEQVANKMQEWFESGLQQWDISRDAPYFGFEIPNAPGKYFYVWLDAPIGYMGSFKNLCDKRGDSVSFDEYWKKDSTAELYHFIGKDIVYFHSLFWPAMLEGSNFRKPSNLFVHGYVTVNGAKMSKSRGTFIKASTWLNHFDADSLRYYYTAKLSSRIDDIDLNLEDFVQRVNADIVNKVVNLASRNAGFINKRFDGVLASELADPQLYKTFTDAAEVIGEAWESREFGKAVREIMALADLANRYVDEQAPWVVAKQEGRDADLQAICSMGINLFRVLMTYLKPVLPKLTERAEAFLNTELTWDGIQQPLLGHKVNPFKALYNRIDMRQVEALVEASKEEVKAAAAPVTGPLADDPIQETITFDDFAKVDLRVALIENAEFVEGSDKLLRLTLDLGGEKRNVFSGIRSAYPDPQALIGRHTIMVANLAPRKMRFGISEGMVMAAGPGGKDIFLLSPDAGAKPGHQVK
The test system of a further assay is Enterococcus faecalis. Description: Antimicrobial activity against Enterococcus faecalis 29212 was determined. Type of assay: functional.
A further assay concerns Staphylococcus aureus. Description: Antimicrobial activity against Staphylococcus aureus 1538p was determined. Type of assay: functional.
The next assay deals with Klebsiella pneumoniae. Description: Antimicrobial activity against Klebsiella pneumoniae 2011E was determined. In kind it is functional.
The subject of the next assay is Pseudomonas aeruginosa. Description: Antimicrobial activity against Pseudomonas aeruginosa 1912E was determined. Type of assay: functional.
In the next assay the test system is Citrobacter freundii. Description: Antimicrobial activity against Citrobacter freundii 8090 was determined. In kind it is functional.
The subject of a further assay is Bacillus subtilis. Description: Antimicrobial activity against Bacillus subtilis ATCC 6633 was determined. Type of assay: functional.
A further assay concerns Serratia marcescens. Description: Antimicrobial activity against Serratia marcescens 1826E was determined. Type of assay: functional.
The next assay concerns Proteus vulgaris. Description: Antimicrobial activity against Proteus vulgaris 6059 was determined. In kind it is functional.
The test system of a further assay is Escherichia coli. Description: Antimicrobial activity against Escherichia coli JM109 was determined. Type of assay: functional.
In another assay the test system is Salmonella typhimurium. Description: Antimicrobial activity against Salmonella Typhimurium 14028 was determined. In kind it is functional, Salmonella enterica subsp. enterica serovar Typhimurium. The following applies: Salmonella enterica.

`CSCC[C@H](NC(=O)OC(C)(C)C)C(=O)NOC(=O)OC(C)(C)C` gave an inhibition in [1] of 0%.

In assay [1], `CSCCC(=O)Cl` displayed an inhibition of 14%.

Turning to `CSCC[C@H](N)C(=O)NO.O=C(O)C(F)(F)F`, the MIC against Enterococcus faecalis was over 128 µg/mL; in the assay with Staphylococcus aureus, over 128 µg/mL; in the assay with Klebsiella pneumoniae, over 128 µg/mL; with Pseudomonas aeruginosa, over 128 µg/mL; against Citrobacter freundii it was 8 µg/mL; against Bacillus subtilis it was over 128 µg/mL. Besides, the minimal inhibitory concentration (MIC) was over 128 µg/mL in the assay with Serratia marcescens, 2 µg/mL against Proteus vulgaris, 1 µg/mL in the assay on Escherichia coli and over 128 µg/mL with Salmonella typhimurium. The same compound registered an inhibition in assay [1] of 81.5%.

Compound `CSCC[C@H](N)C(=O)NOC(C)(C)C` had an inhibition in [1] of 56.2%.

In turn, `CSCC[C@H](NC(=O)OC(C)(C)C)C(=O)O` displayed an inhibition in assay [1] of 11.3%.

Compound `CSCC[C@H](N)C(=O)Nc1cccc([N+](=O)[O-])c1` gave an inhibition in [1] of 0%.

As to `CSCCC(N)C(=O)NO.O=C(O)C(F)(F)F` (stereo not drawn), the MIC in the assay on Enterococcus faecalis, with Staphylococcus aureus, against Klebsiella pneumoniae, against Pseudomonas aeruginosa, in the assay with Citrobacter freundii and with Bacillus subtilis was over 128 µg/mL in each case. The MIC in the assay with Serratia marcescens, against Proteus vulgaris, with Escherichia coli and in the assay with Salmonella typhimurium was over 128 µg/mL throughout.

In [1], `CSCCc1cc(O)[nH]n1` registered an inhibition of 1.8%.

`CCOC(=O)c1c[nH]nc1CCSC` gave an inhibition in [1] of 0%.

Compound `C[S+]([O-])CC[C@H](N)C(=O)NO` (stereo partly drawn) yielded an inhibition in assay [1] of 8.5%.

Compound `CSCC[C@H](N)C(=O)Nc1ccc([N+](=O)[O-])cc1` gave an inhibition in [1] of 33.5%.

In turn, `COC(=O)[C@@H](N)CCSC` had an inhibition in [1] of 20.4%.

Take `CSCCCO`: in assay [1], the inhibition turned out to be 0%.

With `COC(=O)CC(=O)CCSC`, the inhibition in [1] came out at 0.4%.

In assay [1], `CSCC[C@H](NC(=O)OC(C)(C)C)C(=O)NO` had an inhibition of 11.4%.

In turn, `CSCCC(N)C(=O)Nc1ccc2ccccc2c1` (stereo not drawn) had an inhibition in assay [1] of 22.3%.

With `CSCCC(N)C(=O)NO` (stereo not drawn), the MIC in the assay with Enterococcus faecalis is over 128 µg/mL; against Staphylococcus aureus, over 128 µg/mL; in the assay with Klebsiella pneumoniae, over 128 µg/mL; against Pseudomonas aeruginosa, over 128 µg/mL; in the assay with Citrobacter freundii it was 8 µg/mL (≈ 48.7 µM); in the assay with Bacillus subtilis it was over 128 µg/mL. Also, the MIC is over 128 µg/mL against Serratia marcescens, 4 µg/mL (≈ 24.4 µM) against Proteus vulgaris, 2 µg/mL (≈ 12.2 µM) in the assay on Escherichia coli and over 128 µg/mL against Salmonella typhimurium.

Compound `CSCC[C@H](N)C(N)=O` came in with an inhibition in assay [1] of 17.8%.

Compound `CSCCc1nn[nH]n1` returned an inhibition in assay [1] of 16.2%.

In assay [1], `CSCCCCO` gave an inhibition of 0%.

Turning to `CSCCO`, the inhibition in assay [1] was determined as 3.2%.

As to `CSCCC(=O)O`, the inhibition in assay [1] was determined as 5.9%.

In [1], `CSCC[C@H](N)C(=O)NCO` gave an inhibition of 23.1%.

As for `CSCCC=O`, the inhibition in [1] is 4.7%.

On to `CSCC[C@H](N)C(=O)C(C)C`, for which, in assay [1], the inhibition stood at 0%.

`COC(=O)CCSC` had an inhibition in assay [1] of 3.8%.

Take `CSCCC#N`: the inhibition in assay [1] is 7.8%.

In turn, `CSCCc1n[nH]cc1C(=O)O` came in with an inhibition in [1] of 8.3%.

On to `CS(=O)(=O)CC[C@H](N)C(=O)NO`, for which, in [1], the inhibition was found to be 0%.

In [1], `CSCCN1C(=O)c2ccccc2S1(=O)=O` displayed an inhibition of 16.3%.

By inhibition is commonly meant the relative decrease from the control value, in per cent. Lower therefore signals little suppression. A word on the MIC: it is the smallest concentration in the dilution series that meets the test's criterion for growth inhibition. High values mean a less susceptible organism, low ones a more susceptible organism.
